Test results: PubChem BioAssay AID1963867 (Molecular Pharmacology Branch, DTP, NCI, 2024)

System: KRAS-mutant PDC tumor spheroid with HUVEC/MSC, viability
Experiment: Anticancer human tumor 327498-153-R-J2-PDC patient-derived uterine carcinosarcoma cell line growth inhibition [KRAS2]
Conditions: for viability, T/C: stronger effect = lower value
How it was run: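 Combination screen of spheroid viability in tumor-cell co-cultures with endothelial (HUVEC) and mesenchymal stem cell stroma. Each agent was tested in half-log dilutions, topping at clinical Cmax or at 10 microM without a known Cmax.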

[1] = curve of first compound, second compound 0.1 µM
[2] = curve of first compound, second compound 0.316 µM
[3] = curve of first compound, second compound 1 µM
[4] = curve of first compound, second compound 3.16 µM
[5] = curve of first compound, second compound 10 µM
[6] = second compound 0.1 µM, first compound 0.000316 µM
[7] = second compound 0.1 µM, first compound 0.001 µM
[8] = second compound 0.1 µM, first compound 0.00316 µM
[9] = second compound 0.1 µM, first compound 0.01 µM
[10] = second compound 0.1 µM, first compound 0.0316 µM
[11] = second compound 0.1 µM, first compound 0.1 µM
[12] = second compound 0.316 µM, first compound 0.000316 µM
[13] = second compound 0.316 µM, first compound 0.001 µM
[14] = second compound 0.316 µM, first compound 0.00316 µM
[15] = second compound 0.316 µM, first compound 0.01 µM
[16] = second compound 0.316 µM, first compound 0.0316 µM
[17] = second compound 0.316 µM, first compound 0.1 µM
[18] = second compound 1 µM, first compound 0.000316 µM
[19] = second compound 1 µM, first compound 0.001 µM
[20] = second compound 1 µM, first compound 0.00316 µM
[21] = second compound 1 µM, first compound 0.01 µM
[22] = second compound 1 µM, first compound 0.0316 µM
[23] = second compound 1 µM, first compound 0.1 µM
[24] = second compound 3.16 µM, first compound 0.000316 µM
[25] = second compound 3.16 µM, first compound 0.001 µM
[26] = second compound 3.16 µM, first compound 0.00316 µM
[27] = second compound 3.16 µM, first compound 0.01 µM
[28] = second compound 3.16 µM, first compound 0.0316 µM
[29] = second compound 3.16 µM, first compound 0.1 µM
[30] = second compound 10 µM, first compound 0.000316 µM
[31] = second compound 10 µM, first compound 0.001 µM
[32] = second compound 10 µM, first compound 0.00316 µM
[33] = second compound 10 µM, first compound 0.01 µM
[34] = second compound 10 µM, first compound 0.0316 µM
[35] = second compound 10 µM, first compound 0.1 µM
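Further: spheroids exposed to agents for seven days before reading.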
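Wherever viability, T/C is given: 100% = DMSO vehicle wells so lower means fewer viable cells.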

Structure (SMILES) | IC50 [1] [nM] | IC50 [2] [nM] | IC50 [3] [nM] | IC50 [4] [nM] | IC50 [5] [nM] | viability, T/C [6] [%] | viability, T/C [7] [%] | viability, T/C [8] [%] | viability, T/C [9] [%] | viability, T/C [10] [%] | viability, T/C [11] [%] | viability, T/C [12] [%] | viability, T/C [13] [%] | viability, T/C [14] [%] | viability, T/C [15] [%] | viability, T/C [16] [%] | viability, T/C [17] [%] | viability, T/C [18] [%] | viability, T/C [19] [%] | viability, T/C [20] [%] | further results
CN(C)C/C=C/C(=O)Nc1cc2c(Nc3ccc(F)c(Cl)c3)ncnc2cc1O[C@H]1CCOC1 + CNCc1ccccc1-c1csc(C(C)Nc2nc(C)nc3cc(OC)c(OC)cc23)c1 | > 100 | > 100 | > 100 | 1.72 | < 0.316 | 87.9 | 79.1 | 79.7 | 81 | 71.5 | 77.4 | 78.9 | 67.8 | 73.9 | 67.2 | 65.8 | 64 | 76.6 | 67.9 | 64 | viability, T/C [21]: 73.4%; viability, T/C [22]: 58.2%; viability, T/C [23]: 65.7%; viability, T/C [24]: 62.1%; viability, T/C [25]: 51.1%; viability, T/C [26]: 42.6%; viability, T/C [27]: 1.18%; viability, T/C [28]: 22.6%; viability, T/C [29]: 21.1%; viability, T/C [30]: 0.49%; viability, T/C [31]: 0.76%; viability, T/C [32]: 0.34%; viability, T/C [33]: 0.27%; viability, T/C [34]: 1.73%; viability, T/C [35]: 0.36%
Cn1ncnc1[C@H]1c2n[nH]c(=O)c3cc(F)cc(c23)N[C@@H]1c1ccc(F)cc1 | – | – | – | – | – | – | – | – | – | – | – | – | – | – | – | – | – | – | – | – | viability, T/C (compound 0.000316 µM): 103% [middle of 5 runs]; viability, T/C (compound 0.001 µM): 99% [middle of 5 runs]; viability, T/C (compound 0.00316 µM): 94.2% [middle of 5 runs]; viability, T/C (compound 0.01 µM): 81.5% [middle of 5 runs]; viability, T/C (compound 0.0316 µM): 42.4% [middle of 5 runs]; viability, T/C (compound 0.1 µM): 22.4% [middle of 5 runs]; IC50 (curve of compound): 25.3 nM [middle of 5 runs]
Cn1ncnc1[C@H]1c2n[nH]c(=O)c3cc(F)cc(c23)N[C@@H]1c1ccc(F)cc1 + CNCc1ccccc1-c1csc(C(C)Nc2nc(C)nc3cc(OC)c(OC)cc23)c1 | 18.4 | 10.7 | 5.81 | < 0.316 | < 0.316 | 84 | 81.7 | 81.6 | 62.9 | 38 | 19.7 | 72.8 | 70.2 | 61.7 | 54.4 | 28.2 | 19.9 | 63.2 | 68.8 | 53.7 | viability, T/C [21]: 44.5%; viability, T/C [22]: 30.9%; viability, T/C [23]: 21.7%; viability, T/C [24]: 0.09%; viability, T/C [25]: 0.09%; viability, T/C [26]: 0.1%; viability, T/C [27]: 0.07%; viability, T/C [28]: 0.06%; viability, T/C [29]: 0.15%; viability, T/C [30]: 0.12%; viability, T/C [31]: 0.11%; viability, T/C [32]: 0.12%; viability, T/C [33]: 0.12%; viability, T/C [34]: 0.16%; viability, T/C [35]: 0.34%
